The supplement of paper PMC10307832

Columns and labels:
Experiment in all cases: relative viability (nuclei count vs DMSO), 5 days (fraction); higher = more cells survive
Sunitinib + Crizotinib = compound: CCN(CC)CCNC(=O)c1c(C)[nH]c(/C=C2\C(=O)Nc3ccc(F)cc32)c1C [Sunitinib] + C[C@@H](Oc1cc(-c2cnn(C3CCNCC3)c2)cnc1N)c1c(Cl)ccc(F)c1Cl [Crizotinib] (partner 1 µM)
Summary of the method: (§1)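 Relative viability was taken as the ratio of nuclei in treated wells to nuclei in vehicle wells. Lung cancer cell lines in 1536-well plates received compounds by pin tool one day after seeding, either one drug alone or a fixed anchor-drug dose plus five library-drug doses (not always all listed) in √10 steps. Nuclei were counted on 4× images after 5 days of treatment, and values are medians of duplicate plates.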

Sunitinib + Dasatinib = compound: CCN(CC)CCNC(=O)c1c(C)[nH]c(/C=C2\C(=O)Nc3ccc(F)cc32)c1C [Sunitinib] + Cc1nc(Nc2ncc(C(=O)Nc3c(C)cccc3Cl)s2)cc(N2CCN(CCO)CC2)n1 [Dasatinib] (partner 0.075 µM)
Summary of the method: as §1

Sunitinib + Navitoclax = compound: CCN(CC)CCNC(=O)c1c(C)[nH]c(/C=C2\C(=O)Nc3ccc(F)cc32)c1C [Sunitinib] + CC1(C)CCC(c2ccc(Cl)cc2)=C(CN2CCN(c3ccc(C(=O)NS(=O)(=O)c4ccc(N[C@H](CCN5CCOCC5)CSc5ccccc5)c(S(=O)(=O)C(F)(F)F)c4)cc3)CC2)C1 [Navitoclax] (partner 0.5 µM)
Summary of the method: as §1

Sunitinib + Vorinostat = compound: CCN(CC)CCNC(=O)c1c(C)[nH]c(/C=C2\C(=O)Nc3ccc(F)cc32)c1C [Sunitinib] + O=C(CCCCCCC(=O)Nc1ccccc1)NO [Vorinostat] (partner 1 µM)
Summary of the method: as §1

Cell Line	relative viability (Sunitinib + Crizotinib; first compound 0.02 µM)	relative viability (Sunitinib + Crizotinib; first compound 0.06325 µM)	relative viability (Sunitinib + Crizotinib; first compound 0.2 µM)	relative viability (Sunitinib + Crizotinib; first compound 0.6325 µM)	relative viability (Sunitinib + Dasatinib; first compound 0.02 µM)	relative viability (Sunitinib + Dasatinib; first compound 0.06325 µM)	relative viability (Sunitinib + Dasatinib; first compound 0.2 µM)	relative viability (Sunitinib + Dasatinib; first compound 0.6325 µM)	relative viability (Sunitinib + Dasatinib; first compound 2 µM)	relative viability (Sunitinib + Navitoclax; first compound 0.02 µM)	relative viability (Sunitinib + Navitoclax; first compound 0.06325 µM)	relative viability (Sunitinib + Navitoclax; first compound 0.2 µM)	relative viability (Sunitinib + Navitoclax; first compound 0.6325 µM)	relative viability (Sunitinib + Navitoclax; first compound 2 µM)	relative viability (Sunitinib + Vorinostat; first compound 0.02 µM)	relative viability (Sunitinib + Vorinostat; first compound 0.06325 µM)	relative viability (Sunitinib + Vorinostat; first compound 0.2 µM)	relative viability (Sunitinib + Vorinostat; first compound 0.6325 µM)	relative viability (Sunitinib + Vorinostat; first compound 2 µM)	relative viability (Sunitinib + Crizotinib; first compound 2 µM)
HARA	1.02	1.11	1.41	1.19	0.2	0.254	0.278	0.286	0.302	1.05	1.18	1.16	1.18	1.2	0.525	0.518	0.687	0.441	0.553	
H3255	0.836	0.831	0.876	1.05	0.455	0.379	0.418	0.336	0.381	0.477	0.52	0.634	0.548	0.519	0.672	0.573	0.835	0.827	0.822	0.917
A-427	0.865	0.885	1.09	0.847	0.66	0.641	0.787	0.723	0.692	0.954	0.987	0.999	1	1.12	0.871	0.915	0.912	0.887	0.898	0.787
NCI-H1944		1.06	1.34	1.24	0.205	0.246	0.211	0.239	0.211	1.03	1.04	1.1		1	0.547	0.736	0.659	0.625	0.559	1.18
EMC-BAC-2	0.743	0.848	0.821	0.88	0.318	0.336	0.383	0.344	0.36	1.15		1.31	1.09	1.22	0.458	0.464	0.506	0.506	0.505	0.797
NCI-H3122	0.273	0.247	0.249	0.241	0.725	0.985	0.84	0.932	0.853	0.975	1.04	1.07	1.04	0.983	0.958	1.02	1.03	1.05	1.02	0.297
EPLC-272H	0.906	0.736	0.959		0.385	0.418	0.374	0.409	0.333	1.09	1.2	1.38	1.12	0.921	0.512	0.479	0.424	0.397	0.555	0.706
LU99A	0.517	0.524	0.605	0.764	0.489	0.5	0.612	0.57	0.49	0.807	0.765		0.882	0.788	0.468	0.625	0.514	0.516	0.44	0.674
LXF-289	0.771	0.811	0.913	0.8	0.248	0.25	0.237	0.204	0.271	0.93	0.94	1	0.945	0.915	0.688	0.857	0.824	0.779	0.752	
NCI-H1395					0.394	0.463	0.453	0.406	0.266	1.03	1.21	1.34	1.27	1.17	0.715	0.715	0.757	0.897	0.983	
NCI-H650	0.687	0.656	0.738	0.717	0.491	0.523	0.41	0.533	0.476						0.382	0.439	0.423	0.55	0.395	0.78
201T	0.981	0.978	1.03	1.02	0.542	0.56	0.57	0.571	0.528	1.19	1.18	1.21	1.18	1.2	0.932	1.05	1.02	0.954	0.965	1.06
NCI-H2170	1.11	1.12	1.34	1.14	0.505	0.653	0.656	0.548	0.544	0.607	0.681	0.572	0.651	0.445	0.78	0.826	0.927	0.842	0.709	1.17
NCI-H460	0.874	0.945	1.2	1.17	0.471	0.631	0.676	0.602	0.444	0.862	1.19	1.37	1.41	1.08	0.667	0.848	1.01	0.91	0.836	0.638
NCI-H1755	0.753	0.874	0.89	0.904	0.41	0.46	0.441	0.424	0.448				1.04	0.993	0.735	0.878	0.897	0.758	0.842	0.857
NCI-H1975	0.885	0.96	1.05	0.954	0.36	0.403	0.399	0.423	0.344	1.07	1.15	1.11	1.12	1.12	0.693	0.714	0.77	0.733	0.666	
NCI-H23	0.478	0.477	0.854	0.548	0.658	0.787	0.959	0.955	0.794	0.806	0.879	0.899	1.07	0.66	0.625	0.841	0.686	0.665	0.674	0.527
